Where “and” joins values, the source holds several entries; their conditions need not be identical. Identical values can stand only once. Entries after “also recorded” stand apart in the source; their conditions may differ. Like-named read-outs stand apart in the source and are kept apart here.
Legend:
[1] = parameters: species or system New Zealand White rabbits; details: rabbit, in vivo; for antibody titers to the immunizing peptide (ELISA): sc
[2] = parameters: species or system mice; details: mouse, in vivo
[3] = system: PBMC stimulated with SEB; format: cell-based, human; details: 72 hours
[4] = system: PBMC stimulated with SEC; format: cell-based, human; details: 72 hours
[5] = system: PBMC stimulated with SED; format: cell-based, human; details: 72 hours
[6] = system: PBMC stimulated with SPEC; format: cell-based, human; details: 72 hours
[7] = system: PBMC stimulated with SPEA; format: cell-based, human; details: 72 hours
[8] = system: PBMC stimulated with TSST-1; format: cell-based, human; details: 72 hours
[9] = system: PBMC stimulated with SPEG; format: cell-based, human; details: 72 hours
[10] = system: PBMC stimulated with SPEH; format: cell-based, human; details: 72 hours
[11] = system: PBMC stimulated with SPEZ; format: cell-based, human; details: 72 hours
[12] = system: purified MHC class II molecules; format: binding
[13] = molecular target: SEB (Staphylococcus aureus, UniProt P01552); details: mouse, in vivo
Sequence of SEB (P01552 28-266 limits assumed): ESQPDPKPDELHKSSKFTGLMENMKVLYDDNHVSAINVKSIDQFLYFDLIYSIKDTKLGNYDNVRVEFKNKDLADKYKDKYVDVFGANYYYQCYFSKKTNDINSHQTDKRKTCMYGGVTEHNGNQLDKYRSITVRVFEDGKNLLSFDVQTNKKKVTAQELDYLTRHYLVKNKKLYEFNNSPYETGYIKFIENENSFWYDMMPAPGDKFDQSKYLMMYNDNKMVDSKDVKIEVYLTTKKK

[14] = molecular target: SPEA (Streptococcus pyogenes phage T12, UniProt P0DJY8); details: mouse, in vivo
Sequence of SPEA (P0DJY8 31-251): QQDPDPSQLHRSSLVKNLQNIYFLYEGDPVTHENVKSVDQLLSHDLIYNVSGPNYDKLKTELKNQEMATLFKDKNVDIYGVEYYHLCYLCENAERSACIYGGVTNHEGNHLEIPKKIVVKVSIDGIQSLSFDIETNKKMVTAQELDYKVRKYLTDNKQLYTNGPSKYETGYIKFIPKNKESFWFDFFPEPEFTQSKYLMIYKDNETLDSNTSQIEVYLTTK

[15] = molecular target: TSST-1 (Staphylococcus aureus, UniProt P06886); details: mouse, in vivo
Sequence of TSST-1 (P06886 41-234 limits assumed): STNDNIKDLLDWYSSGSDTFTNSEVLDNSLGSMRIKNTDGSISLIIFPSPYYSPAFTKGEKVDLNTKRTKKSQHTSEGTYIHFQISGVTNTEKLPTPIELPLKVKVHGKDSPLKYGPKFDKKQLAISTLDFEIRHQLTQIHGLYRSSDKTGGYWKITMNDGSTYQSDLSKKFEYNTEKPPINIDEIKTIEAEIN

## CGKKNVTVQELDYKIRKYLVDNKKLYGC* [peptide 6346]
[1]
  antibody titers to the immunizing peptide (ELISA): high titers

## CMYGGVTEHEGN [peptide 6343]
[1]
  induction of detectable antibodies: does not induce detectable antibodies
[2]
  induction of detectable antibodies: does not induce detectable antibodies
[3]
  inhibition of blastogenesis (tritiated thymidine incorporation): inhibited blastogenesis
  inhibition of blastogenesis, dose response: dose-response inhibition of blastogenesis
  inhibitory activity of SEB compared with peptide 6346 or peptide 6348: more inhibitory activity
[4]
  inhibition of blastogenesis (tritiated thymidine incorporation): inhibited blastogenesis
[5]
  inhibition of blastogenesis (tritiated thymidine incorporation): inhibited blastogenesis
[6]
  inhibition of blastogenesis (tritiated thymidine incorporation): inhibited blastogenesis
[7]
  inhibition of blastogenesis (tritiated thymidine incorporation): inhibited blastogenesis
[8]
  inhibition of blastogenesis (tritiated thymidine incorporation): inhibited blastogenesis
[9]
  inhibition of blastogenesis (tritiated thymidine incorporation): inhibited blastogenesis
[10]
  inhibition of blastogenesis (tritiated thymidine incorporation): inhibited blastogenesis
[11]
  inhibition of blastogenesis (tritiated thymidine incorporation): inhibited blastogenesis
[12]
  binding to the MHC complex: binds very strongly
  competition for the site of SEB binding on MHC (decreased anti-SEB antibody binding): able to compete effectively; also recorded: decreased anti-SEB binding at increased concentrations
[13]
  Alive/Total SEB: 5 out of 6 and 5/6 (83%)
  Alive/Total SEB, percent alive: 5/6 (83%)
[14]
  Alive/Total SPEA: 2 out of 2 and 2/2 (100%)
  Alive/Total SPEA, percent alive: 2/2 (100%)
[15]
  Alive/Total TSST-1: 2 out of two and 2/2 (100%)
  Alive/Total TSST-1, percent alive: 2/2 (100%)

## CMYGGVTEHEGNGC* [compound 6344]
[1]
  antibody titers to the immunizing peptide (ELISA): high titers

## CMYGGVTEHEGNKKNVTVQELDYKIRKYLVDNKKLYGC* [peptide 6348]
[1]
  antibody titers to the immunizing peptide (ELISA): high titer antibodies; also recorded: significant antibody titers

Reference: patent US7115268B1, “Peptides useful for reducing symptoms of toxic shock syndrome and septic shock” (The Rockefeller University, priority 1997, dated 2006)
